Reference: patent US20090198069A1, “METAL COMPLEX, LIGHT-EMITTING DEVICE AND DISPLAY” (NAGASAKI UNIVERSITY, NATIONAL UNIVERSITY CORPORATI, priority 2005, published 2009)

Experiment: Solubility in a solvent (qualitative)
Assay type: physicochemical
[1] = dichloromethane (methylene chloride)

Structure (SMILES) | solubility in a solvent (acetonitrile) | solubility in a solvent (benzene) | solubility in a solvent (chloroform) | solubility in a solvent [1] | solubility in a solvent (toluene) | solubility in a solvent (acetone) | solubility in a solvent (hexane) | solubility in a solvent (methanol) | solubility in a solvent (diethyl ether) | solubility in a solvent (water)
Cc1cc[n+]2[n]1[Pt-2]13[n]4c(C)cc[n+]4[Ag-][n]4ccc(C)[n+]4[Pt-2]([n]4c(C)cc[n+]4[Ag-][n]4ccc(C)[n+]41)([n]1c(C)cc[n+]1[Ag-][n]1ccc(C)[n+]13)[n+]1c(C)cc[n]1[Ag-]2 [[Pt2Ag4(μ-3-Mepz)8]] | slightly soluble | slightly soluble | soluble | soluble | slightly soluble |  |  |  |  | 
CC(C)(C)c1cc[n+]2[n]1[Ag-][n+]1c(C(C)(C)C)cc[n]1[Pt-2]13[n]4ccc(C(C)(C)C)[n+]4[Ag-][n]4c(C(C)(C)C)cc[n+]4[Pt-2]2([n]2ccc(C(C)(C)C)[n+]2[Ag-][n]2c(C(C)(C)C)cc[n+]21)[n]1ccc(C(C)(C)C)[n+]1[Ag-][n]1c(C(C)(C)C)cc[n+]13 [[Pt2Ag4(μ-3-^tBupz)8]] |  |  | readily soluble | readily soluble |  |  |  |  |  | 
c1ccc(-c2cc(-c3ccccc3)[n+]3[n]2[Pt-2]24[Cl+][Ag-][n]5c(-c6ccccc6)cc(-c6ccccc6)[n+]5[Pt-2]([Cl+][Ag-][n]5c(-c6ccccc6)cc(-c6ccccc6)[n+]52)([n]2c(-c5ccccc5)cc(-c5ccccc5)[n+]2[Ag-][n]2c(-c5ccccc5)cc(-c5ccccc5)[n+]24)[n+]2c(-c4ccccc4)cc(-c4ccccc4)[n]2[Ag-]3)cc1 [[Pt2Ag4(μ-Cl)2(μ-dppz)6]] | slightly soluble | soluble | readily soluble | readily soluble | soluble |  |  |  |  | 
CC(C)(C)c1cc[n+]2[n]1[Cu-][n+]1c(C(C)(C)C)cc[n]1[Pt-2]13[n]4ccc(C(C)(C)C)[n+]4[Cu-][n]4c(C(C)(C)C)cc[n+]4[Pt-2]2([n]2ccc(C(C)(C)C)[n+]2[Cu-][n]2c(C(C)(C)C)cc[n+]21)[n]1ccc(C(C)(C)C)[n+]1[Cu-][n]1c(C(C)(C)C)cc[n+]13 [[Pt2Cu4(μ-3-^tBupz)8]] |  |  | soluble | soluble |  |  |  |  |  | 
CC(C)(C)c1cc[n-]n1.CC(C)(C)c1cc[n-]n1.CC(C)(C)c1cc[nH]n1.CC(C)(C)c1cc[nH]n1.[Pt+2] [[Pt(3-^tBupz)2(3-^tBupzH)2]] |  |  | readily soluble | readily soluble |  | soluble | soluble | soluble |  | 
CC(C)(C)c1ccn[nH]1.CC(C)(C)c1ccn[nH]1.CC(C)(C)c1ccn[nH]1.CC(C)(C)c1ccn[nH]1.[Cl-].[Cl-].[Pt+2] [[Pt(3-^tBupzH)4]Cl2] |  |  | readily soluble | readily soluble | soluble |  |  | soluble |  | 
[Cl][Pt-2]([n]1nc(-c2ccccc2)cc1-c1ccccc1)([n+]1[nH]c(-c2ccccc2)cc1-c1ccccc1)[n+]1[nH]c(-c2ccccc2)cc1-c1ccccc1 [[PtCl(dppz)(dppzH)2]] | soluble | soluble | readily soluble | readily soluble | soluble | readily soluble |  |  |  | 
Cc1ccn[n]1[Pt-2]([n]1nccc1C)([n+]1[nH]ccc1C)[n+]1[nH]ccc1C.Cc1ccn[n]1[Pt-2]([n]1nccc1C)([n+]1[nH]ccc1C)[n+]1[nH]ccc1C [[{Pt(3-Mepz)2(3-MepzH)2}2]] |  | soluble | readily soluble | readily soluble | soluble |  |  |  | soluble | 

Further lines, results first:

solubility in a solvent (acetonitrile) | solubility in a solvent (benzene) | solubility in a solvent (chloroform) | solubility in a solvent [1] | solubility in a solvent (toluene) | solubility in a solvent (acetone) | solubility in a solvent (hexane) | solubility in a solvent (methanol) | solubility in a solvent (diethyl ether) | solubility in a solvent (water) | Structure (SMILES)
moderately soluble | highly soluble | extremely highly soluble | extremely highly soluble | highly soluble | not soluble | moderately soluble | not soluble |  |  | Cc1cc(C)[n+]2[n]1[Pt-2]13[n]4c(C)cc(C)[n+]4[Ag-][n]4c(C)cc(C)[n+]4[Pt-2]([n]4c(C)cc(C)[n+]4[Ag-][n]4c(C)cc(C)[n+]41)([n]1c(C)cc(C)[n+]1[Ag-][n]1c(C)cc(C)[n+]13)[n+]1c(C)cc(C)[n]1[Ag-]2 [[Pt2Ag4(μ-dmpz)8]]
poorly soluble |  | soluble | soluble | poorly soluble | slightly soluble |  | poorly soluble | slightly soluble |  | Cc1cc(C)[n+]2[n]1[Pt-2]13[n]4c(C)cc(C)[n+]4[Cu-][n]4c(C)cc(C)[n+]4[Pt-2]([n]4c(C)cc(C)[n+]4[Cu-][n]4c(C)cc(C)[n+]41)([n]1c(C)cc(C)[n+]1[Cu-][n]1c(C)cc(C)[n+]13)[n+]1c(C)cc(C)[n]1[Cu-]2 [[Pt2Cu4(μ-dmpz)8]]
moderately soluble | highly soluble | extremely highly soluble | extremely highly soluble | highly soluble | not soluble |  | not soluble | moderately soluble | not soluble | Cc1cc(C)[n]([Pt-2]([n]2nc(C)cc2C)([n+]2[nH]c(C)cc2C)[n+]2[nH]c(C)cc2C)n1.Cc1cc(C)[n]([Pt-2]([n]2nc(C)cc2C)([n+]2[nH]c(C)cc2C)[n+]2[nH]c(C)cc2C)n1 [[{Pt(dmpz)2(dmpzH)2}2]]
